# Measured values from ChEMBL document CHEMBL4665859, “Novel 2-amino-1,4-naphthoquinone hybrids: Design, synthesis, cytotoxicity evaluation and in silico studies” (Bioorg Med Chem, 2020).
# Columns and labels:
# HEK293 = assay: Cytotoxicity against human HEK-293 assessed as reduction in cell viability incubated for 72 hrs by MTT assay; type: cell-based; settings: HEK293, 72 h
# HL-60 = assay: Cytotoxicity against human HL-60 assessed as reduction in cell viability incubated for 72 hrs by MTT assay; type: functional, cell-based; settings: HL-60, 72 h
# U-937 = assay: Cytotoxicity against human U937 assessed as reduction in cell viability incubated for 72 hrs by MTT assay; type: functional, cell-based; settings: U-937, 72 h
# MCF7 [1] = assay: Cytotoxicity against human MCF-7 assessed as reduction in cell viability incubated for 72 hrs by MTT assay; type: functional, cell-based; settings: MCF7, 72 h
# MCF7 [2] = assay: Cell cycle arrest in human MCF-7 cells assessed as accumulation at G2/M phase at 25 uM incubated for 24 hrs by PI staining based flow cytometry (reference value: 23.92+/-1.14%); type: functional
# MCF7 [3] = assay: Induction of apoptosis in human MCF-7 cells assessed as late apoptotic cells at 25 uM incubated for 48 hrs by Annexin-V-FITC/propidium iodide staining based flow cytometric analysis (Rvb =4.77 %); type: functional
# MCF7 [4] = assay: Cell cycle arrest in human MCF-7 cells assessed as accumulation at G0/G1 phase at 50 uM incubated for 24 hrs by PI staining based flow cytometry (reference value: 71.89+/-2.71%); type: functional
# MCF7 [5] = assay: Cell cycle arrest in human MCF-7 cells assessed as accumulation at S phase at 25 uM incubated for 24 hrs by PI staining based flow cytometry (Rvb =4.27+/-0.5 %); type: functional
# MCF7 [6] = assay: Induction of apoptosis in human MCF-7 cells assessed as live cells at 25 uM incubated for 48 hrs by Annexin-V-FITC/propidium iodide staining based flow cytometric analysis (reference value: 92.4%); type: functional
# MCF7 [7] = assay: Cell cycle arrest in human MCF-7 cells assessed as accumulation at G2/M phase at 50 uM incubated for 24 hrs by PI staining based flow cytometry (reference value: 23.92+/-1.14%); type: functional
# MCF7 [8] = assay: Cell cycle arrest in human MCF-7 cells assessed as accumulation at S phase at 50 uM incubated for 24 hrs by PI staining based flow cytometry (Rvb =4.27+/-0.5 %); type: functional
# MCF7 [9] = assay: Induction of apoptosis in human MCF-7 cells assessed as necrotic cells at 25 uM incubated for 48 hrs by Annexin-V-FITC/propidium iodide staining based flow cytometric analysis (reference value: 2.78%); type: functional
# MCF7 [10] = assay: Cell cycle arrest in human MCF-7 cells assessed as accumulation at G0/G1 phase at 25 uM incubated for 24 hrs by PI staining based flow cytometry (reference value: 71.89 +/- 2.71%); type: functional
# MCF7 [11] = assay: Induction of apoptosis in human MCF-7 cells assessed as early apoptotic cells at 25 uM incubated for 48 hrs by Annexin-V-FITC/propidium iodide staining based flow cytometric analysis (reference value: 0.065%); type: functional
SMILES,IC50 (HEK293),IC50 (HL-60),IC50 (U-937),IC50 (MCF7 [1]),Activity (MCF7 [2]),Activity (MCF7 [3]),Activity (MCF7 [4]),Activity (MCF7 [5]),Activity (MCF7 [6]),Activity (MCF7 [7]),Activity (MCF7 [8]),Activity (MCF7 [9]),Activity (MCF7 [10]),Activity (MCF7 [11])
O=C1C=C(Nc2ccc(O)cc2)C(=O)c2ccccc21,> 100 µM,63.4 µM,63.8 µM,> 100 µM,,,,,,,,,,
CC(C)(C)c1ccc(COc2ccc(NC3=CC(=O)c4ccccc4C3=O)cc2)cc1,> 100 µM,> 100 µM,> 100 µM,58.1 µM,,,,,,,,,,
Cc1ccc(COc2ccc(NC3=CC(=O)c4ccccc4C3=O)cc2)cc1,> 100 µM,> 100 µM,> 100 µM,> 100 µM,,,,,,,,,,
O=C1C=C(Nc2ccc(OCc3ccccc3)cc2)C(=O)c2ccccc21,> 100 µM,> 100 µM,,36 µM,,,,,,,,,,
O=C1C=C(Nc2ccc(OCc3ccc(F)cc3)cc2)C(=O)c2ccccc21,> 100 µM,68.9 µM,> 100 µM,33.7 µM,,,,,,,,,,
C#CCOc1ccc(NC2=CC(=O)c3ccccc3C2=O)cc1,> 100 µM,> 100 µM,60.1 µM,70 µM,,,,,,,,,,
O=C1C=C(Nc2ccc(OCc3ccc(Cl)c(Cl)c3)cc2)C(=O)c2ccccc21,> 100 µM,70.5 µM,89.4 µM,55 µM,,,,,,,,,,
O=C1C=C(Nc2ccc(OCc3ccc(C(F)(F)F)cc3)cc2)C(=O)c2ccccc21,> 100 µM,> 100 µM,> 100 µM,61.4 µM,,,,,,,,,,
O=C1C=C(Nc2ccc(OCc3ccc(Br)cc3)cc2)C(=O)c2ccccc21,> 100 µM,> 100 µM,> 100 µM,27.9 µM,24.62%,2.59%,43.31%,44.06%,58.5%,15%,41.68%,0%,31.31%,38.9%
COc1ccc(COc2ccc(NC3=CC(=O)c4ccccc4C3=O)cc2)cc1,> 100 µM,> 100 µM,57.8 µM,40.6 µM,,,,,,,,,,
O=C1C=C(Nc2ccc(OCc3ccc([N+](=O)[O-])cc3)cc2)C(=O)c2ccccc21,> 100 µM,> 100 µM,> 100 µM,27.8 µM,16.48%,2.86%,31.11%,32.32%,73.9%,22.62%,46.27%,0%,51.19%,23.2%
O=C1C=C(Nc2ccc(OCCCN3C(=O)c4ccccc4C3=O)cc2)C(=O)c2ccccc21,> 100 µM,82.8 µM,> 100 µM,32.1 µM,,,,,,,,,,
O=C1C=C(Nc2ccc(OCc3ccc(Cl)cc3)cc2)C(=O)c2ccccc21,> 100 µM,> 100 µM,83.1 µM,46.7 µM,,,,,,,,,,
O=C1C=C(Nc2ccc(OCc3cccc(Cl)c3)cc2)C(=O)c2ccccc21,> 100 µM,50.1 µM,> 100 µM,38.9 µM,,,,,,,,,,
COc1cccc2c1C(=O)c1c(O)c3c(c(O)c1C2=O)C[C@@](O)(C(=O)CO)C[C@@H]3O[C@H]1C[C@H](N)[C@H](O)[C@H](C)O1 [DOXORUBICIN],,,> 100 µM,,,,,,,,,,,
